The values below come from patent publication US20240246908A1 (ORION CORPORATION, priority 2021, published 2024).

Where only a bound is given, the exact number is not on record here.

The subject of this assay is YAP-TEAD. As to the kind of experiment: TEAD inhibition, Hippo Pathway TEAD Reporter MCF-7 luciferase assay. The settings on record: Homo sapiens, MCF7, 24 h, Hippo Pathway TEAD Reporter MCF-7 cells, luciferase activity after 24 h; read-out: IC50 of the test compounds on YAP-TEAD inhibition (Group). It is filed as cell-based. The essentials:
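IC50 derived from ONE-Glo luciferase luminescence after 24 h compound exposure (11 concentrations in quadruplicate, 0.1% DMSO control). Reporter: MCF-7 line expressing firefly luciferase under TEAD elements, constitutively activated by nuclear YAP1.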
Regarding `CN1C(=O)CC[C@@H]1C(=O)Nc1cc(Oc2ccc(F)c(F)c2)cc2c1OCCO2` [Compound 97, (R)—N-(7-(3,4-Difluorophenoxy)-2,3-dihydrobenzo[b][1,4]dioxin-5-yl)-1-methyl-5-oxopyrrolidine-2-carboxamide], the IC50 was below 50 nM.
In the case of `CN1C(=O)CC[C@H]1C(=O)Nc1cc(Oc2ccc(F)c(F)c2)cc2c1OCCO2` [Compound 98, (S)—N-(7-(3,4-Difluorophenoxy)-2,3-dihydrobenzo[b][1,4]dioxin-5-yl)-1-methyl-5-oxopyrrolidine-2-carboxamide] it was 50 to 300 nM.
In the case of `CN1C(=O)CC[C@@H]1C(=O)Nc1cc(Oc2ccc(C(F)(F)F)cc2)cc2c1OCC2` [Compound 99, (R)-1-Methyl-5-oxo-N-(5-(4-(trifluoromethyl)phenoxy)-2,3-dihydrobenzofuran-7-yl)pyrrolidine-2-carboxamide] it was below 50 nM.
On to `CN1C(=O)CC[C@H]1C(=O)Nc1cc(Oc2ccc(F)c(F)c2)cc2c1OCC2` [Compound 100, (S)—N-(5-(3,4-Difluorophenoxy)-2,3-dihydrobenzofuran-7-yl)-1-methyl-5-oxopyrrolidine-2-carboxamide], for which the IC50 is below 50 nM.
As to `COc1ccc(Oc2ccc(C(F)(F)F)cc2)cc1NC(=O)[C@H]1COC(=O)N1C` [Compound 101, (R)—N-(2-Methoxy-5-(4-(trifluoromethyl)phenoxy)phenyl)-3-methyl-2-oxooxazolidine-4-carboxamide], the 50% inhibitory concentration (IC50) is below 50 nM.
On to `COc1ccc(Oc2ccc(C(F)(F)F)cc2)cc1NC(=O)[C@@H]1COC(=O)N1C` [Compound 102, (S)—N-(2-Methoxy-5-(4-(trifluoromethyl)phenoxy)phenyl)-3-methyl-2-oxooxazolidine-4-carboxamide], for which the IC50 was below 50 nM.
As to `COc1ccc(O[C@H]2CC[C@H](C(F)(F)F)CC2)cc1NC(=O)[C@H]1CCC(=O)N1C` [Compound 103, (R)—N-(2-Methoxy-5-(((trans)-4-(trifluoromethyl)cyclohexyl)oxy)phenyl)-1-methyl-5-oxopyrrolidine-2-carboxamide], the IC50 was below 50 nM.
In the case of `COc1ccc(OC2CCC(F)(F)CC2)cc1NC(=O)C1COC(=O)N1C` (stereo not drawn) [Compound 104, N-(5-((4,4-Difluorocyclohexyl)oxy)-2-methoxyphenyl)-3-methyl-2-oxo-oxazolidine-4-carboxamide] it was 50 to 300 nM; in that of `COc1ccc(O[C@H]2CC[C@H](C(F)(F)F)CC2)cc1NC(=O)[C@@H]1CCC(=O)N1C` [Compound 105, (S)—N-(2-Methoxy-5-(((trans)-4-(trifluoromethyl)cyclohexyl)oxy)phenyl)-1-methyl-5-oxopyrrolidine-2-carboxamide], below 50 nM.
The value for `CN1C(=O)CCC1C(=O)Nc1cc(Oc2cccc(C(F)(F)F)c2)cc2c1NC(=O)CO2` (stereo not drawn) [Compound 106, 1-Methyl-5-oxo-N-(3-oxo-7-(3-(trifluoromethyl)phenoxy)-3,4-dihydro-2H-benzo[b][1,4]oxazin-5-yl)pyrrolidine-2-carboxamide] was 301 to 2000 nM; that for `CN1C(=O)CC[C@H]1C(=O)Nc1cc(O[C@H]2CC[C@@H](C(F)(F)F)CC2)cc2c1OCC2` [Compound 107, (S)-1-Methyl-5-oxo-N-(5-(((cis)-4-(trifluoromethyl)cyclohexyl)oxy)-2,3-dihydrobenzofuran-7-yl)pyrrolidine-2-carboxamide] was below 50 nM.
On to `CN1C(=O)CC[C@@H]1C(=O)Nc1cc(O[C@H]2CC[C@@H](C(F)(F)F)CC2)cc2c1OCC2` [Compound 108, (R)-1-Methyl-5-oxo-N-(5-(((cis)-4-(trifluoromethyl)cyclohexyl)oxy)-2,3-dihydrobenzofuran-7-yl)pyrrolidine-2-carboxamide], for which the IC50 is 50 to 300 nM.
In the case of `O=C(Nc1cc(Oc2ccc(C(F)(F)F)cc2)cc2c1OCC2)C1CCC(=O)N1C1CC1` (stereo not drawn) [Compound 109, 1-Cyclopropyl-5-oxo-N-(5-(4-(trifluoromethyl)phenoxy)-2,3-dihydro-benzofuran-7-yl)pyrrolidine-2-carboxamide] it was below 50 nM; in that of `COc1ccc(Oc2ccc(C(F)(F)F)cc2)cc1NC(=O)C1CCC(=O)N1C1CC1` (stereo not drawn) [Compound 110, 1-Cyclopropyl-N-(2-methoxy-5-(4-(trifluoromethyl)phenoxy)phenyl)-5-oxo-pyrrolidine-2-carboxamide], below 50 nM; in that of `COc1ccc(Oc2ccc(F)c(F)c2)cc1NC(=O)C1CCC(=O)N1C1CC1` (stereo not drawn) [Compound 111, 1-Cyclopropyl-N-(5-(3,4-difluorophenoxy)-2-methoxyphenyl)-5-oxopyrrolidine-2-carboxamide], 50 to 300 nM.
The value for `COc1ccc(Oc2ccc(OC(F)(F)F)cn2)cc1NC(=O)C1COC(=O)N1C` (stereo not drawn) [Compound 112, N-(2-Methoxy-5-((5-(trifluoromethoxy)pyridin-2-yl)oxy)phenyl)-3-methyl-2-oxooxazolidine-4-carboxamide] was 50 to 300 nM; that for `CN1C(=O)CCC1C(=O)Nc1cc(COC2CCC(F)(F)CC2)cc2c1OCCO2` (stereo not drawn) [Compound 113, N-(7-(((4,4-Difluorocyclohexyl)oxy)methyl)-2,3-dihydrobenzo[b][1,4]dioxin-5-yl)-1-methyl-5-oxopyrrolidine-2-carboxamide] was 301 to 2000 nM.
`O=C(Nc1cc(Oc2ccc(C(F)(F)F)cc2)cc2c1OCCO2)C1CCC(=O)N1C1CC1` (stereo not drawn) [Compound 114, 1-Cyclopropyl-5-oxo-N-(7-(4-(trifluoromethyl)phenoxy)-2,3-dihydrobenzo[b][1,4]dioxin-5-yl)pyrrolidine-2-carboxamide]: the IC50 was below 50 nM.
Consider `COc1ccc(Oc2ccc(OC(F)(F)F)cn2)cc1NC(=O)C1CCC(=O)N1C` (stereo not drawn) [Compound 115, N-(2-Methoxy-5-((5-(trifluoromethoxy)pyridin-2-yl)oxy)phenyl)-1-methyl-5-oxopyrrolidine-2-carboxamide], for which the IC50 lay in the range of 50 to 300 nM.
In the case of `COc1ccc(Oc2ccc(C(F)(F)F)cc2)cc1NC(=O)C1CCS(=O)(=O)C1` (stereo not drawn) [Compound 116, N-(2-Methoxy-5-(4-(trifluoromethyl)phenoxy)phenyl)tetrahydrothiophene-3-carboxamide 1,1-dioxide], the IC50 was in the range of 50 to 300 nM.
The value for `COc1ccc(Oc2ccc(C(F)(F)F)cc2)cc1NC(=O)C1CNC(=O)N1C` (stereo not drawn) [Compound 117, N-(2-Methoxy-5-(4-(trifluoromethyl)phenoxy)phenyl)-3-methyl-2-oxo-imidazolidine-4-carboxamide] was below 50 nM; that for `COc1ccc(Oc2ccc(C(F)(F)F)cn2)cc1NC(=O)C1CNC(=O)N1C` (stereo not drawn) [Compound 118, N-(2-Methoxy-5-((5-(trifluoromethyl)pyridin-2-yl)oxy)phenyl)-3-methyl-2-oxoimidazolidine-4-carboxamide] was below 50 nM.
In the case of `COc1ccc(Oc2ccc(C(F)(F)F)cc2)cc1NC(=O)[C@H]1CCC(=O)NC1` [Compound 119, (S)—N-(2-Methoxy-5-(4-(trifluoromethyl)phenoxy)phenyl)-6-oxopiperidine-3-carboxamide] it was below 50 nM; in that of `COc1ccc(Oc2ccc(C(F)(F)F)cc2)cc1NC(=O)[C@@H]1CCC(=O)NC1` [Compound 120, (R)—N-(2-Methoxy-5-(4-(trifluoromethyl)phenoxy)phenyl)-6-oxopiperidine-3-carboxamide], 301 to 2000 nM; in that of `COc1ccc(Oc2ccc(C(F)(F)F)cc2)cc1NC(=O)C1(C)CCC(=O)NC1` (stereo not drawn) [Compound 121, N-(2-Methoxy-5-(4-(trifluoromethyl)phenoxy)phenyl)-3-methyl-6-oxo-piperidine-3-carboxamide], 301 to 2000 nM.
The value for `COc1ccc(Oc2ccc(C(F)(F)F)cc2)cc1NC(=O)c1ccc(=O)[nH]c1` [Compound 122, N-(2-Methoxy-5-(4-(trifluoromethyl)phenoxy)phenyl)-6-oxo-1,6-dihydro-pyridine-3-carboxamide] was 301 to 2000 nM; that for `COc1ccc(Oc2ccc(C(F)(F)F)cn2)cc1NC(=O)C1(C)CNC(=O)N1C` (stereo not drawn) [Compound 123, N-(2-Methoxy-5-((5-(trifluoromethyl)pyridin-2-yl)oxy)phenyl)-3,4-dimethyl-2-oxoimidazolidine-4-carboxamide] was 301 to 2000 nM; that for `COc1ccc(Oc2ccc(C(F)(F)F)cn2)cc1NC(=O)[C@H]1CNC(=O)N1C` [Compound 124, (R)—N-(2-Methoxy-5-((5-(trifluoromethyl)pyridin-2-yl)oxy)phenyl)-3-methyl-2-oxoimidazolidine-4-carboxamide] was 301 to 2000 nM.
`COc1ccc(Oc2ccc(C(F)(F)F)cn2)cc1NC(=O)[C@@H]1COC(=O)N1C` [Compound 125, (S)—N-(2-Methoxy-5-((5-(trifluoromethyl)pyridin-2-yl)oxy)phenyl)-3-methyl-2-oxooxazolidine-4-carboxamide]: the IC50 fell in the range of 50 to 300 nM.
With `COc1ccc(Oc2ccc(C(F)(F)F)cn2)cc1NC(=O)[C@H]1COC(=O)N1C` [Compound 126, (R)—N-(2-Methoxy-5-((5-(trifluoromethyl)pyridin-2-yl)oxy)phenyl)-3-methyl-2-oxooxazolidine-4-carboxamide], the half-inhibitory concentration (IC50) was 50 to 300 nM.
The value for `CCN1C(=O)NCC1C(=O)Nc1cc(Oc2ccc(C(F)(F)F)cn2)ccc1OC` (stereo not drawn) [Compound 127, 3-Ethyl-N-(2-methoxy-5-((5-(trifluoromethyl)pyridin-2-yl)oxy)phenyl)-2-oxo-imidazolidine-4-carboxamide] was 50 to 300 nM; that for `COc1ccc(Oc2ccc(C(F)(F)F)cn2)cc1NC(=O)[C@H]1CCC(=O)N1C1CC1` [Compound 128, (R)-1-Cyclopropyl-N-(2-methoxy-5-((5-(trifluoromethyl)pyridin-2-yl)oxy)-phenyl)-5-oxopyrrolidine-2-carboxamide] was below 50 nM; that for `COc1ccc(Oc2ccc(C(F)(F)F)cn2)cc1NC(=O)[C@@H]1CCC(=O)N1C1CC1` [Compound 129, (S)-1-Cyclopropyl-N-(2-methoxy-5-((5-(trifluoromethyl)pyridin-2-yl)oxy)-phenyl)-5-oxopyrrolidine-2-carboxamide] was below 50 nM.

Usually IC50 stands for the concentration at which inhibition is half-maximal.
